The values below come from ChEMBL document CHEMBL3132769, “Fragment growing to retain or alter the selectivity of anchored kinase hinge-binding fragments” (Medchemcomm, 2014).

Molecules are shown by their SMILES.

A word on the inhibition: it is the percentage by which the read-out fell short of the control.

The target in test [1] is T1, cGMP-dependent protein kinase 1 (Homo sapiens) (UniProt Q13976).
T1 sequence (whole entry): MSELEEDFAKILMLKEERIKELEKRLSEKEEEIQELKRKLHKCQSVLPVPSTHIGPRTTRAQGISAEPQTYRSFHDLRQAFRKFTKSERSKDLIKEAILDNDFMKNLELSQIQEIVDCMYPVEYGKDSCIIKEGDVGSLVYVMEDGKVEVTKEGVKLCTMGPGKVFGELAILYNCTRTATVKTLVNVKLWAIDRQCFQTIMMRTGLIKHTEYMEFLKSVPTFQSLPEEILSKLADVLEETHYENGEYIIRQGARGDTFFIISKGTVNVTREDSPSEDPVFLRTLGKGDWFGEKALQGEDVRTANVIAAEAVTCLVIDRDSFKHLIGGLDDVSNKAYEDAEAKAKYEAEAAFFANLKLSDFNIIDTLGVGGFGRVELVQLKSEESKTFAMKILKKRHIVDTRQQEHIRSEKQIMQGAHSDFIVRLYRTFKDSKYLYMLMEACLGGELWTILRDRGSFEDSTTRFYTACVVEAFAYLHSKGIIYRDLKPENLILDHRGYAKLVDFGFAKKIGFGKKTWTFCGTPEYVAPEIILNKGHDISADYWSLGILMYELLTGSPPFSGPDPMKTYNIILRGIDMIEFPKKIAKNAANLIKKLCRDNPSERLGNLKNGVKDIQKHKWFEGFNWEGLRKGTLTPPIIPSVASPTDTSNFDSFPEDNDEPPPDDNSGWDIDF
In words: Inhibition of human full length PKG-1a expressed in baculovirus assessed as substrate phosphorylation using fluorescence-labelled peptides as substrate at 2 uM after 90 mins by microfluidic peptide phosphorylation assay.

Test [2] relates to Tyrosine-protein kinase ABL1 (Homo sapiens), P00519 [H396P]. In words: Inhibition of human truncated ABL H396P mutant expressed in baculovirus assessed as substrate phosphorylation using fluorescence-labelled peptides as substrate at 0.1 uM after 90 mins by microfluidic peptide phosphorylation assay.
The target of test [3] is Calcium/calmodulin-dependent protein kinase type II subunit beta (Homo sapiens) (UniProt Q13554). The note with it: 0.1 uM.
Description: Inhibition of human CAMK2 beta catalytic domain expressed in baculovirus assessed as substrate phosphorylation using fluorescence-labelled peptides as substrate at 0.1 uM after 90 mins by microfluidic peptide phosphorylation assay
The target of test [4] is T1, cGMP-dependent protein kinase 1 (Homo sapiens). Put plainly: Inhibition of human full length PKG-1beta expressed in baculovirus assessed as substrate phosphorylation using fluorescence-labelled peptides as substrate at 0.2 uM after 90 mins by microfluidic peptide phosphorylation assay.
For test [5], the target named is Ribosomal protein S6 kinase alpha-3 (Homo sapiens) (UniProt P51812). Put plainly: Inhibition of human full length RSK2 expressed in baculovirus assessed as substrate phosphorylation using fluorescence-labelled peptides as substrate at 0.2 uM after 90 mins by microfluidic peptide phosphorylation assay.
In test [6] the target is T2, Protein kinase C zeta type (Homo sapiens) (UniProt Q05513).
T2 sequence (whole entry): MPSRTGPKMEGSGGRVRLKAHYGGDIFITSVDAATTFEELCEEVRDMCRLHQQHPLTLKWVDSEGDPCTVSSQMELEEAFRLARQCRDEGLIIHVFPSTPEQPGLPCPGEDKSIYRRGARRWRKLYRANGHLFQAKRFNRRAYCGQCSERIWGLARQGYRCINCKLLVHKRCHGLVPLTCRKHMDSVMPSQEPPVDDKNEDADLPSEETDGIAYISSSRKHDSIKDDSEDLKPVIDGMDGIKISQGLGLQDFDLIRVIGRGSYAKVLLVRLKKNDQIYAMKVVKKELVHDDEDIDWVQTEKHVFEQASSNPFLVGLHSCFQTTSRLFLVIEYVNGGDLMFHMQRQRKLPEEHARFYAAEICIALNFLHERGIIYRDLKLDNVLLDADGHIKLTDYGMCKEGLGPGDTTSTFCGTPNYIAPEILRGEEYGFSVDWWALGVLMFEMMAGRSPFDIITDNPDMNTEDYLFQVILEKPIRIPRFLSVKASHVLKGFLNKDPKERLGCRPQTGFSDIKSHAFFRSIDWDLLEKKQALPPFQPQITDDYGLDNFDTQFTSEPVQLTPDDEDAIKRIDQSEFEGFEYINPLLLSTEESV
Put plainly: Inhibition of human full length PKC zeta expressed in baculovirus assessed as substrate phosphorylation using fluorescence-labelled peptides as substrate at 8 uM after 90 mins by microfluidic peptide phosphorylation assay.

The target of test [7] is Tyrosine-protein kinase ABL2 (Homo sapiens) (UniProt P42684). Put plainly: Inhibition of human truncated Arg expressed in baculovirus assessed as substrate phosphorylation using fluorescence-labelled peptides as substrate at 70 uM after 90 mins by microfluidic peptide phosphorylation assay.
Test [8] deals with Tyrosine-protein kinase Fer (Homo sapiens) (UniProt P16591). In words: Inhibition of human FER catalytic domain expressed in baculovirus assessed as substrate phosphorylation using fluorescence-labelled peptides as substrate at […] after 90 mins by microfluidic peptide phosphorylation assay.
Test [9] has as its target Protein kinase C delta type (Homo sapiens) (UniProt Q05655). In words: Inhibition of human truncated PKC delta expressed in baculovirus assessed as substrate phosphorylation using fluorescence-labelled peptides as substrate at 1000 uM after 90 mins by microfluidic peptide phosphorylation assay.
In test [10] the target is T3, Mitogen-activated protein kinase 12 (Homo sapiens) (UniProt P53778).
T3 sequence (whole entry): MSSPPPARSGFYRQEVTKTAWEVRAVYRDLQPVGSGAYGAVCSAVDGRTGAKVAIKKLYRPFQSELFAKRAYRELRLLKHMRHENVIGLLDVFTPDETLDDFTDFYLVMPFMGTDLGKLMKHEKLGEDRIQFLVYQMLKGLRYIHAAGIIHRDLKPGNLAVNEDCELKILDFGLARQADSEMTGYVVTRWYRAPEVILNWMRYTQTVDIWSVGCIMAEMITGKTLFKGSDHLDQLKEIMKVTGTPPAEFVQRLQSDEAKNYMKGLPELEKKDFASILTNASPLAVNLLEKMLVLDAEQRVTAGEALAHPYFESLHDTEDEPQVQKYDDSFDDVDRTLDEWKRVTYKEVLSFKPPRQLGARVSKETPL
In words: Inhibition of human full length p38 gamma expressed in Escherichia coli cell assessed as substrate phosphorylation using fluorescence-labelled peptides as substrate at 1000 uM after 90 mins by microfluidic peptide phosphorylation assay.

For test [11], the target named is Ribosomal protein S6 kinase alpha-4 (Homo sapiens) (UniProt O75676). Put plainly: Inhibition of human full length MSK2 expressed in baculovirus assessed as substrate phosphorylation using fluorescence-labelled peptides as substrate at 1000 uM after 90 mins by microfluidic peptide phosphorylation assay.
Chain of Ribosomal protein S6 kinase alpha-4 (Homo sapiens) (O75676 whole entry, looked up): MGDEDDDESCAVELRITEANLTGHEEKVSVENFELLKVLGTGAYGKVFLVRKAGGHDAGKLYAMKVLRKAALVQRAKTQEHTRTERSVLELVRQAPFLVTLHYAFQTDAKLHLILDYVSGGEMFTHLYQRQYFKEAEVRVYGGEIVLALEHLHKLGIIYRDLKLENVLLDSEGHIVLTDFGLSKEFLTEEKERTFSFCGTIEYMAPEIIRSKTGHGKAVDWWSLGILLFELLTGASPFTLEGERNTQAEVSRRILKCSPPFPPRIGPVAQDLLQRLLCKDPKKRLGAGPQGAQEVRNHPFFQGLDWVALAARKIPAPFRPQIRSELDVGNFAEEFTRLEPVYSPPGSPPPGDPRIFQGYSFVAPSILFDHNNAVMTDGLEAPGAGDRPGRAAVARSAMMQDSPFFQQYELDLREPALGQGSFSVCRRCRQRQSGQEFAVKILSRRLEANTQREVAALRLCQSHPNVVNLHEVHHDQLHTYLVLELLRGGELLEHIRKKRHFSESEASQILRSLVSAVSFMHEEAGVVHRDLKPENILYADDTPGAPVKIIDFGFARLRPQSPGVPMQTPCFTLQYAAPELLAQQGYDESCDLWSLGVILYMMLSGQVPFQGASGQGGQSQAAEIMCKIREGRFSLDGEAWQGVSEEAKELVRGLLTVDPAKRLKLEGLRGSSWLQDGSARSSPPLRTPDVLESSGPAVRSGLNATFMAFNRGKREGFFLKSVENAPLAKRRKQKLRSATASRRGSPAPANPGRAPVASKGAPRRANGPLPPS

Chain of Tyrosine-protein kinase Fer (Homo sapiens) (P16591 whole entry, looked up, the tested form may be a part): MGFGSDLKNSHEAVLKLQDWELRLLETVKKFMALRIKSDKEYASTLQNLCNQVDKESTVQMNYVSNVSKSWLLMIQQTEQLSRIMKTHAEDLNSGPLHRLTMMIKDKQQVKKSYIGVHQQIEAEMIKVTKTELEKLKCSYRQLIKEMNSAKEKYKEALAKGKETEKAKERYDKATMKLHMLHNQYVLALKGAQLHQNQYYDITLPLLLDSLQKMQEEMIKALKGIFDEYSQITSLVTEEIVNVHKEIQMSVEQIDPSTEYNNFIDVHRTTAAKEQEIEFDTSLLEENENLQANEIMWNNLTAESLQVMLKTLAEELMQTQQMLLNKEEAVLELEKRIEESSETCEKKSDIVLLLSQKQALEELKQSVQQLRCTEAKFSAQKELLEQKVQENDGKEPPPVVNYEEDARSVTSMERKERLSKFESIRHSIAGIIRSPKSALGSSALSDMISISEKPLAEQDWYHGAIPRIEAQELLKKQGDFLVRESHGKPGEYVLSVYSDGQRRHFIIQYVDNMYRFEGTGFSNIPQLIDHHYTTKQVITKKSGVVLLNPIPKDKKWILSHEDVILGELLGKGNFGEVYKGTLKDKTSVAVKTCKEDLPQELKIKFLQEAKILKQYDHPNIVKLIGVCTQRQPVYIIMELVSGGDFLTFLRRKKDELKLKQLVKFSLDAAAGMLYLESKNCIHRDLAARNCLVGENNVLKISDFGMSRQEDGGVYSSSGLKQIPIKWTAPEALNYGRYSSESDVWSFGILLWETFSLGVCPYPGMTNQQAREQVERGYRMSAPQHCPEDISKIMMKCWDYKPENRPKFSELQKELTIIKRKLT
Chain of Tyrosine-protein kinase ABL2 (Homo sapiens) (P42684 whole entry, the tested form may be a part): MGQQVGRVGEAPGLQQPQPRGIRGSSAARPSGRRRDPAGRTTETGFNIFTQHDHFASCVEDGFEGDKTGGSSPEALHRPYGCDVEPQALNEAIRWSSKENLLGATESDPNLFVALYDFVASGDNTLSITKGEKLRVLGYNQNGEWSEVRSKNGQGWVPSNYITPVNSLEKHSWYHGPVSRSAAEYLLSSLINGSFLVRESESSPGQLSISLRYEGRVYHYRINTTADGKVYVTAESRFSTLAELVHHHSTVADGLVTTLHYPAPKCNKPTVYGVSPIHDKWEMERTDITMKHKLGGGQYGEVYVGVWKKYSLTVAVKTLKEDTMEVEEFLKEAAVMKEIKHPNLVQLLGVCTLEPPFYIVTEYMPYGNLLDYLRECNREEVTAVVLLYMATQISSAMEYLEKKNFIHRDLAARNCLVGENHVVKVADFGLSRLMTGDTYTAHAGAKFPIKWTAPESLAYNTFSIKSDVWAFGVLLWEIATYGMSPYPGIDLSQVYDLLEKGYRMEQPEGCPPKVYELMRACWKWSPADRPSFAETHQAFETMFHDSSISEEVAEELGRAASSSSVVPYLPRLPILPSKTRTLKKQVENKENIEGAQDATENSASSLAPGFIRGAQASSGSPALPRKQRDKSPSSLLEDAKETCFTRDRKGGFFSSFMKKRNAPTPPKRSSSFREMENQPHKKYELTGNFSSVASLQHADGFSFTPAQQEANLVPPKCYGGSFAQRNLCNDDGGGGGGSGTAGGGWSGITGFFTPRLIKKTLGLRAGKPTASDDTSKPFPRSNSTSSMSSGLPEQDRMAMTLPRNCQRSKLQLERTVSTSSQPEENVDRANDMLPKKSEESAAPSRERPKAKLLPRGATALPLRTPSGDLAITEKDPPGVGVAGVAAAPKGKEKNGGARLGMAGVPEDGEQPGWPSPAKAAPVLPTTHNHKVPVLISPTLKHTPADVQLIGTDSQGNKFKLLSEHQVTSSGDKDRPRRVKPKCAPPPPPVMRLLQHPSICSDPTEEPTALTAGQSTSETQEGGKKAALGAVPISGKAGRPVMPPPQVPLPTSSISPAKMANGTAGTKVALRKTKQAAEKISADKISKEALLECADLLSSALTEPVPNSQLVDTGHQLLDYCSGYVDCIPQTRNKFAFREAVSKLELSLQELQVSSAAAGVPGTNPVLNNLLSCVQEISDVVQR
Chain of Protein kinase C delta type (Homo sapiens) (Q05655 whole entry, looked up, the tested form may be a part): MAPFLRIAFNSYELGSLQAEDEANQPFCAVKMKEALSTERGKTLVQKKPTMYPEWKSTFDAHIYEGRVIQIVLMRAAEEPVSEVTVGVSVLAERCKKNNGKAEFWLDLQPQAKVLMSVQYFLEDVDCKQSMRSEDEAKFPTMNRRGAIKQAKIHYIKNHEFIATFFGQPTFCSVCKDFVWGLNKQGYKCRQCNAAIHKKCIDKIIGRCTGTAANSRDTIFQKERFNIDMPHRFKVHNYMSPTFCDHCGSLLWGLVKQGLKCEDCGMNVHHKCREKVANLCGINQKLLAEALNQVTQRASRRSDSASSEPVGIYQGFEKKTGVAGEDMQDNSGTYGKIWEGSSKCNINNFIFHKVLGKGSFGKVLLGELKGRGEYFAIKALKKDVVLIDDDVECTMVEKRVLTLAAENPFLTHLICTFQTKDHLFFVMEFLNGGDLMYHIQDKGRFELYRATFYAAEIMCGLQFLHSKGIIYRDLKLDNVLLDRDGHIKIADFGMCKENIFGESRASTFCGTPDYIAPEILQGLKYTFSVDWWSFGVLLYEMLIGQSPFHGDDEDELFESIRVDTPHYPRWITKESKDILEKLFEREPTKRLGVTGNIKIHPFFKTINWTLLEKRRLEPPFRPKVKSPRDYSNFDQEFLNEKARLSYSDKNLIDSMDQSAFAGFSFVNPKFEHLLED
Chain of Calcium/calmodulin-dependent protein kinase type II subunit beta (Homo sapiens) (Q13554 whole entry): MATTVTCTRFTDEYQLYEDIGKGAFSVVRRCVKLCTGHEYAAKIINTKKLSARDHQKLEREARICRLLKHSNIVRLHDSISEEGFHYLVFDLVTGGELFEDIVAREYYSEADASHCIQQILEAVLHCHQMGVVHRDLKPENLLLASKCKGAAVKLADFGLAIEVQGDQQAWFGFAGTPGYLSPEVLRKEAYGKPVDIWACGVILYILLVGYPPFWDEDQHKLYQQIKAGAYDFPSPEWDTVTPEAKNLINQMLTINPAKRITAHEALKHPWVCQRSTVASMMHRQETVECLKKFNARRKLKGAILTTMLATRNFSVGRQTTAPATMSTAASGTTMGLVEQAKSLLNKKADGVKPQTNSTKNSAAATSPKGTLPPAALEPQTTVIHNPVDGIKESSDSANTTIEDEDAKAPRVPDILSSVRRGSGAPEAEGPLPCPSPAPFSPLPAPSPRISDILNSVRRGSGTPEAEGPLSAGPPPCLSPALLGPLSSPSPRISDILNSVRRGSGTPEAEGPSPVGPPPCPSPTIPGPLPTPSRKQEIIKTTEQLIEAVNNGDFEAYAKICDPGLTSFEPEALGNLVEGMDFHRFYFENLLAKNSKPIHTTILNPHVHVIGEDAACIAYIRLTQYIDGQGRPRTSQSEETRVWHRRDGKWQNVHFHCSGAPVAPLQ
Chain of Ribosomal protein S6 kinase alpha-3 (Homo sapiens) (P51812 whole entry): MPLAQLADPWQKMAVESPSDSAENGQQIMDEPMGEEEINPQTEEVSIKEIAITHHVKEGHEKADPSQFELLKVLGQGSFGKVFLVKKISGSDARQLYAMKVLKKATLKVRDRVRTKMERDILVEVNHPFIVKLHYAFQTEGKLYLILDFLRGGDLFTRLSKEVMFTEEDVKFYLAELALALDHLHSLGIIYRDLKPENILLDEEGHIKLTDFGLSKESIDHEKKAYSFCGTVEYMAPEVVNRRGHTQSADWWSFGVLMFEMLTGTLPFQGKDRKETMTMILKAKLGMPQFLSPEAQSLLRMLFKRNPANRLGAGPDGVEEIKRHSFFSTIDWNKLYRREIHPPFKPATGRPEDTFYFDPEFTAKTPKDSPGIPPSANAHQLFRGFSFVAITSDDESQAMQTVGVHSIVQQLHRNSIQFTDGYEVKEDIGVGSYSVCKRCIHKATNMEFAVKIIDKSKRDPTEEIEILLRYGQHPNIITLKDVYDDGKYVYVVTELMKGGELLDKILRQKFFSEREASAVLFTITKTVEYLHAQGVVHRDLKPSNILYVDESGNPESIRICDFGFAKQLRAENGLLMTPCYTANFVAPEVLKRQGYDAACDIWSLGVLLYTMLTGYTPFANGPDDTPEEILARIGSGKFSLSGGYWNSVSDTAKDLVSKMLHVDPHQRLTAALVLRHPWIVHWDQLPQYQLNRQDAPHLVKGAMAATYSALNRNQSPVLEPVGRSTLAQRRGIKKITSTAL

In the case of `NC1CCN(c2ncnc3[nH]ccc23)CC1`, in [1], the inhibition turned out to be 10%.

In the case of `C[C@H](CN(C)C)Oc1nc(Nc2cc3cccc(Cl)c3cn2)cnc1C#N`, the figures for the inhibition in [2] and in [3] were 1.5% and 0%, respectively.

For the molecule `Clc1ccc(C2(c3ccc(-c4ncnc5[nH]cnc45)cc3)CCNCC2)cc1`, the figures for the inhibition in test [4] and in [5] were 88.5% and 55%, respectively.

Take `NCC1CCN(c2ncnc3[nH]ccc23)CC1`: in [6], the inhibition was 67.5%.

`CNCc1ccc(-c2ncnc3[nH]cnc23)cc1`: the inhibition in test [7] was 33%.

For `COC(=O)c1cnc(Nc2cnc(C#N)cn2)cc1NCC1CCNCC1`, the inhibition in [8] turned out to be 1%.

For `c1cnc2[nH]ccc2c1`, the inhibition in test [9] stood at 45.5%; in [10], 64%; in test [11] it was 81%.
